Read-outs that look alike come from different tables or passages of the source.
What was measured:
[1] = tested on: Differentiating hippocampal human stem cells; assay: Long-term treatment in vitro neurogenesis; assay type: cell-based; conditions: for activity at 10 µM: Homo sapiens, 504 h, three weeks, 5× with 10 μM, compared to the control; for Further increase in neuron numbers over long-term treatment: FIG. 11, compared to one week of treatment
Description: FIG. 11 is a bar graph illustrating an example of in vitro neurogenesis profile of the compounds for a long-term treatment. Differentiating hippocampal human stem cells mere treated with vehicle alone or with the test compounds for three weeks. Increase in cell number was determined compared to the control. Shown are several examples that are effective in continued neurogenesis. Bars represent mean+/−SD from six wells.
In another in vitro assay, compounds of the fused imidazole, iminopyrimidine, nicotinamide, aminomethyl phenoxypiperidine and aryloxypiperidine types are evaluated for their effect on the differentiation of the culture-born cells to mature neurons. More particularly, multipotent human hippocampal stem cells are treated in three doses over a one-week period in N2b media and in the presence of an agent of the type mentioned above. The cells are then fed twice weekly for approximately two more weeks in N2b or Neuralbasal+B27 Media (Gibco) and then cells are fixed using 4% paraformaldehyde. Cells are washed 3× with PBS (pH 7.4) and then stained using a nuclear stain (Hoechst or DAPI) and a mature neuronal marker, MAP-2ab (AP-20) antibody. A secondary antibody, Alexa Fluor 488 labeled goat anti-mouse IgG, is used to identify by fluorescent labeling the mature neurons. The fluorescent intensity and number of cells labeled in a multi-plate format can be measured using for instance a Array Scan II (Cellomics) or similar instrumentation.
Effects of the long-term NSI compound treatment on human hippocampal stem cells in the absence of mitogen is illustrated in FIG. 11. In FIG. 11, differentiating hippocampal human stem cells are treated with vehicle alone or with the test compounds for three weeks. Increase in cell number was determined compared to the control. Bars represent mean+/−SD from six wells. […] Several examples of NSI compounds are shown to be effective in continued neurogenesis. […] These agents comprise a class of compounds, aminopyrimidines, that, as shown previously, inhibited apoptosis. Accordingly, the aminopyrimidine class of compounds appear ideally suited for neurodegenerative long-term diseases including Alzheimer's disease and aging. Neurogenic agents that are neuroprotective like the sixteen compounds identified above might also be effective therapeutics for other neurodegenerative diseases in mammals including, but not limited to, stroke, traumatic brain injury, Parkinson's disease, and mild cognitive impairment.

[2] = tested on: human hippocampal stem cells; assay: Neurogenesis, TuJ1 immunostaining / Hoechst (primary screen); assay type: cell-based; conditions: seven days of compound treatment; for Neuron Number (% of Control): TuJ1+ neurons per area; for Neuron Ratio (% of Control): ratio neuron:total cells (TuJ1/Hoechst)
Text: FIG. 2 is a bar graph illustrating an example of a neurogenesis profile of compounds selected from primary screening. After seven days of compound treatment, the cells were stained with the neuron-specific anti-tubulin IIIb antibody. TuJ1, for neurons and Hoechst for all cell nuclei. Shown are the relative ratio of neuron: total cells for each compound over the vehicle control in percentage. Typical ratio for vehicle control is 40-50% neurons. The ratio can change by either increased differentiation of stem cells to neurons, decreased proliferation of astrocytes, or increased proliferation of neuronal progenitors.
FIG. 3 is a bar graph illustrating an example of a neurogenesis profile of compounds selected from primary screening. After seven days of compound treatment, the cells were stained with TuJ1 for neurons. The number of TuJ1+ neurons per area was quantified and expressed as a relative value to the vehicle treated control.
The final neuron number is detected by immunostaining of the culture with antibodies against neurons and is quantified by counting of the immunopositive neurons and/or by measuring the staining intensity. Therefore, after seven days of compound treatment, the cells are stained with the neuron-specific anti-tubulin IIIb antibody, TuJ1, for neurons and Hoechst for all cell nuclei. The number of TuJ1+ neurons per area is quantified and expressed as a value relative to the vehicle-treated control of Hoechst-stained cells. In this regard, the medium is removed from the wells by decanting and blotting the plates on paper towels. The cells are then fixed in 100 μl of 4% paraformaldehyde per well for thirty minutes at room temperature. The cells are washed three times with 400 μl per well of phosphate-buffered saline (PBS) at pH 7.5 for approximately ten minutes per wash. The plates are then stored at 4° C. in PBS or used immediately for staining.
The cells are subsequently stained with antibodies against neuron-specific antigens according to standard procedures. The staining process includes decanting the PBS and blocking the cells with 100 μl of 5% Normal Goat Serum (NGS) in PBS for one hour at room temperature. The NGS/PBS is decanted and the plates are blotted on a paper towel. The cells are then permeabilized with 0.1% Triton X-100 in PBS for 30 minutes at room temperature.
Typical neuron-specific antigens include Type III-beta tubulin and MAP-2c. The total cell number in each well was quantified by staining the cultures with a nuclear dye such as DAPI or Hoechst according to standard procedures. Therefore, once the cells are permeabilized, 20 μl of TuJ1, monoclonal antibody against neuronal class 111 β-tubulin (CoVance (BabCo) MMS-435P) and 32 μl of anti-GFAP polyclonal (DAKO Z0334) are added to and mixed of PBS with 5% NGS. Final dilutions of TuJ1 and anti-GFAP are 1:400 and 1:250, respectively. 90 μl of the antibody solution is added to each well except two eleventh column. 90 μl of PBS/5% NGS is added to the eleventh column and no cells are added to the twelfth column. The plate(s) are sealed with parafilm and incubated at 4° C. overnight.
After incubating the cells overnight, the antibody solution is decanted and 200 μl of PBS/0.1% Triton X-100 is added to the wells. The plate(s) are placed on a shaker and incubated at room temperature with gentle shaking for ten minutes. The cells are again washed with the PBS/Triton X-100 solution another two times.
Following staining with TuJ1 and anti-GFAP, 20 μl of Alexa Fluor 488 labeled goat anti-moose IgG (H+L) (Molecular Probes A-11001) and 100 μl of LRSC-IgG, goat anti-rabbit (Jackson Immune 111-295-144) is added and mixed with 10 ml of PBS/5% NGS. 100 μl of the resulting antibody solution is added to each well. The plate(s) are covered with foil and incubated with gentle shaking for up to one hour at room temperature. The cells are again washed as described above with PBS and an Triton X-100. […]

[3] = read-out: Long Term Treatment #Neur
[4] = read-out: Long Term Treatment Neur Ratio
[5] = read-out: Long Term Treatment Prolif

| SMILES | activity at 10 µM [1, 3] [%] | activity at 10 µM [1, 4] [%] | activity at 10 µM [1, 5] [%] | Neuron Number (% of Control) [2] | Neuron Ratio (% of Control) [2] | Further increase in neuron numbers over long-term treatment [1] |
| --- | --- | --- | --- | --- | --- | --- |
| CCCCNc1c(C2CCN(C(=O)CN(CC(C)C)S(C)(=O)=O)CC2)nc2cnccn12 [NSI-106] | 137 ± 8 | 120 ± 5 | 92 ± 3 | 77 ± 12 % of Control | 92 ± 6 % of Control |  |
| CS(=O)(=O)N1CCCCC1C(=O)NCc1ccc(Nc2c(C3CC3)nc3ccccn23)cc1 (stereo not shown) [NSI-127] | 135 ± 21 | 131 ± 15 | 103 ± 8 | 81 ± 13 % of Control | 104 ± 8 % of Control |  |
| COc1ccc(CCNc2ncc(C(N)=O)c(NC3CC3)n2)cc1OC [NSI-130] | 128 ± 30 | 92 ± 12 | 115 ± 11 | 124 ± 8 % of Control | 128 ± 4 % of Control | effective in stimulating further increases in neuron numbers |
| CCCNc1ncc(C(N)=O)c(NC2CCCC2)n1 [NSI-137] | 139 ± 35 | 98 ± 18 | 111 ± 10 | 151 ± 40 % of Control | 116 ± 8 % of Control |  |
| O=C(c1cccnc1N1CCNCC1)N1CCN(Cc2ccncc2)CC1 [NSI-142] | 146 ± 34 | 120 ± 21 | 105 ± 26 | 152 ± 22 % of Control | 125 ± 15 % of Control |  |
| O=C(NC1CCN(Cc2ccccc2)CC1)c1cccnc1N1CCNCC1 [NSI-143] | 102 ± 14 | 103 ± 12 | 153 ± 33 | 143 ± 6 % of Control | 130 ± 14 % of Control |  |
| NC(=O)c1cnc(NCc2ccc(Cl)cc2)nc1NCC1CCCCC1 [NSI-144] | 170 ± 46 | 123 ± 12 | 97 ± 21 | 179 ± 29 % of Control | 137 ± 8 % of Control | effective in stimulating further increases in neuron numbers |
| CCCCNc1c(C2CCN(C(=O)c3ccc(C#N)cc3)CC2)nc2ccccn12 [NSI-149] | 171 ± 19 | 143 ± 11 | 89 ± 13 | 113 ± 16 % of Control | 100 ± 6 % of Control |  |
| C=CCNC(=O)c1cccnc1NCc1ccccc1OC [NSI-150] | 120 ± 10 | 105 ± 7 | 110 ± 25 | 107 ± 29 % of Control | 99 ± 6 % of Control |  |
| CC(C)(C)OC(=O)NCCNC(=O)c1cccnc1NCC1CCCCC1 [NSI-157] | 139 ± 43 | 107 ± 22 | 146 ± 19 | 135 ± 15 % of Control | 142 ± 6 % of Control |  |
| NC(=O)C1CCCN1C(=O)c1cccnc1NCC1CCCCC1 (stereo not shown) [NSI-158] | 141 ± 24 | 114 ± 14 | 99 ± 6 | 93 ± 17 % of Control | 106 ± 9 % of Control |  |
| O=C(NCc1nc2ccccn2c1NCC1CCCO1)Oc1ccccc1 (stereo not shown) [NSI-182] | 121 ± 13 | 111 ± 13 | 95 ± 6 | 95 ± 9 % of Control | 125 ± 10 % of Control |  |
| O=C(COc1ccccc1)NCc1nc2ccccn2c1NCC1CCCO1 (stereo not shown) [NSI-183] | 148 ± 30 | 111 ± 16 | 99 ± 19 | 128 ± 13 % of Control | 131 ± 4 % of Control |  |
| CS(=O)(=O)N(CC(=O)NCc1nc2ccccn2c1NCc1ccccc1)c1ccccc1 [NSI-185] | 155 ± 30 | 105 ± 19 | 83 ± 25 | 141 ± 70 % of Control | 135 ± 15 % of Control |  |
| CC(C)CCNc1ncccc1C(=O)N1CCN(Cc2ccccc2)CC1 [NSI-189] | 110 ± 26 | 96 ± 19 | 144 ± 17 | 102 ± 41 % of Control | 130 ± 19 % of Control |  |
| CCN(CCNC(=O)c1cccnc1NCCC(C)C)Cc1cccnc1 [NSI-190] | 121 ± 19 | 100 ± 12 | 98 ± 11 | 130 ± 22 % of Control | 127 ± 9 % of Control |  |
